Experimental findings from patent publication US20140011799A1 (Bristol-Myers Squibb Company, priority 2012, published 2014) are described below.

Broadly, the pIC50 is the negative decadic logarithm of the IC50, by convention in mol/L.

pIC50: −log10 of the molar value.

For one test, the target named is T1, hepatic lipase (HL) (Homo sapiens, UniProt P11150).
T1 construct: made in house; host or cells: COS cells (conditioned medium, partially purified)
T1 sequence (P11150 23-499): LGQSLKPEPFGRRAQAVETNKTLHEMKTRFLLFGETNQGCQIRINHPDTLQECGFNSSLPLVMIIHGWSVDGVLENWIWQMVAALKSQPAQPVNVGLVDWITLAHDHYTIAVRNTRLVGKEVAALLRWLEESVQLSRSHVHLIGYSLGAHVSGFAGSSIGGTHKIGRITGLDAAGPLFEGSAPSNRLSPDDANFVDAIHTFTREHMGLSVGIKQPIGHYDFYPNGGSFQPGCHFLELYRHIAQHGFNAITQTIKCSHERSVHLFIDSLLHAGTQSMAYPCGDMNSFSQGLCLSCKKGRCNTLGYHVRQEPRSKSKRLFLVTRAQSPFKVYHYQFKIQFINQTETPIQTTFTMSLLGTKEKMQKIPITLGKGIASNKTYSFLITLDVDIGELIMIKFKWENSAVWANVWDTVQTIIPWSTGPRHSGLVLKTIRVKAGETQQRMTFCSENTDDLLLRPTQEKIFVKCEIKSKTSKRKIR
The test can be described thus: Hepatic lipase (HL) enzymatic assay, fluorescent substrate A10070 in DMPG vesicles. Type of test: biochemical. Particulars: HL partially purified from conditioned media of COS cells; compound preincubated 30 min at 37° C; read-out: HL IC50. The method in brief:
(§1)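 Substrate A10070 sits in sonicated DMPG vesicles at 0.11 mole fraction. Lipase and compound preincubated 30 min, 37° C, in HEPES pH 8.0 buffer with CaCl2.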

The next test has as its target T2, Endothelial lipase (EL) (Homo sapiens, UniProt Q9Y5X9).
T2 construct: HT-1080 cells that were transformed using RAGE technology (Athersys) to overexpress endogenous EL; endogenous in cells; conditioned medium used
T2 sequence (Q9Y5X9 21-500): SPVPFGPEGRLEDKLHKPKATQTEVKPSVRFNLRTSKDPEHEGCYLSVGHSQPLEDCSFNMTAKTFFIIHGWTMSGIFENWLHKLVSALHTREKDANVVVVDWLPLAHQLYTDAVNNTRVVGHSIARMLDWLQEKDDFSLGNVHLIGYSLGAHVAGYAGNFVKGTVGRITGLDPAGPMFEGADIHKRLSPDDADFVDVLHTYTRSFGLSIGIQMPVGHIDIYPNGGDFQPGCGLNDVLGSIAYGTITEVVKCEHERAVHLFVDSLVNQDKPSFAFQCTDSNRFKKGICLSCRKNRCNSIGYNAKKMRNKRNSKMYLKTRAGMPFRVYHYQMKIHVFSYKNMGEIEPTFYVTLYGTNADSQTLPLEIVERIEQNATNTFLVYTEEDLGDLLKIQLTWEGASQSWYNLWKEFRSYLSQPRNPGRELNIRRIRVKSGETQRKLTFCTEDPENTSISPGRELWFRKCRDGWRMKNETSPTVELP
Kind of test: Endothelial lipase (EL) enzymatic assay, fluorescent substrate A10070 in DMPG vesicles. The conditions noted are these: EL from conditioned media of HT-1080 cells; compound preincubated 30 min at 37° C; read-out: EL IC50. The test is classed as biochemical. The method in brief:
as §1

As for `O=C(Cc1nnc(C(c2nc3ccc(-c4ccc(C(=O)N5CCOCC5)cc4)cc3s2)S(=O)(=O)Cc2ccccc2)o1)NCC1(O)CCC1` (stereo not shown) [Example 178, 2-(5-((benzylsulfonyl)(6-(4-(4-morpholinylcarbonyl)phenyl)-1,3-benzothiazol-2-yl)methyl)-1,3,4-oxadiazol-2-yl)-N-((1-hydroxycyclobutyl)methyl) acetamide], the pIC50 was 6.56 at hepatic lipase (HL) and over 8.00 at Endothelial lipase (EL).
For `NS(=O)(=O)NCc1nnc(C(c2nc3ccc(-c4cnn(-c5ccc(F)cc5)c4)cc3s2)S(=O)(=O)Cc2ccccc2)o1` (stereo not shown) [Example 138, N-((5-((benzylsulfonyl)(6-(1-(4-fluorophenyl)-1H-pyrazol-4-yl)-1,3-benzothiazol-2-yl)methyl)-1,3,4-oxadiazol-2-yl)methyl)sulfamide], the pIC50 at hepatic lipase (HL) and on Endothelial lipase (EL) was over 8.00 in each case.
